Data from ChEMBL document CHEMBL3351954, “Enhanced water-soluble derivative of PC407 as a novel potential COX-2 inhibitor injectable formulation” (Bioorg Med Chem Lett, 2014).
In brackets after ≈: the same amount, converted by molar mass. Activity calls are given as the source filed them. The rule behind the calls is not given here.

Experiments:
[1] = Solubility of the compound in water at 25 degC by HPLC analysis; type: physicochemical
Plasma [2] = assay: Drug level in Sprague-Dawley rat plasma treated with 5 mg/kg, iv after 10 mins to 4 hrs; type: ADME, organism-based; set-up: dose 5 mg/kg, route intravenous; settings: in vivo
[3] = target: Prostaglandin G/H synthase 1 (Homo sapiens) (UniProt P23219); assay: Inhibition of recombinant COX-1 (unknown origin) at 0.1 uM
[4] = target: T1, Prostaglandin G/H synthase 2 (Homo sapiens) (UniProt P35354); assay: Inhibition of recombinant COX-2 (unknown origin) at 0.1 uM
T1 sequence (whole entry): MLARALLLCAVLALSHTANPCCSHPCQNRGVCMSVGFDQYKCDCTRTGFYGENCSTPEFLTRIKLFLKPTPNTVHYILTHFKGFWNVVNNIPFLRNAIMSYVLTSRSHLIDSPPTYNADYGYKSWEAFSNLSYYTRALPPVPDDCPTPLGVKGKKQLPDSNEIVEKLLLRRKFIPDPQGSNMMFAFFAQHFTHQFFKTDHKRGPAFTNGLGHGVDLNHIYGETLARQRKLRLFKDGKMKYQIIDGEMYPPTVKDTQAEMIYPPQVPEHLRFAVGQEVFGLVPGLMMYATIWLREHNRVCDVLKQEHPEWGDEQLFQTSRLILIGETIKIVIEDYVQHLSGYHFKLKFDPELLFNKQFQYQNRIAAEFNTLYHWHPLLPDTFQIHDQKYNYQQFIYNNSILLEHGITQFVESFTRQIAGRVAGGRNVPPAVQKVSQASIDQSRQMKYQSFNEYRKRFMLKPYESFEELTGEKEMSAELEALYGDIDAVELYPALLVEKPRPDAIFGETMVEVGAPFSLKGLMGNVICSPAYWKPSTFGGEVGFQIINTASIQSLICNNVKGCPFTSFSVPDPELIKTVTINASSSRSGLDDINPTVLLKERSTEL

Mus musculus [5] = assay: Analgesic activity in Kun Ming mouse model assessed as inhibition of acetic acid-induced visceral pain at 0.1 mmol/kg, iv administered 5 mins prior to acetic acid challenge measured after 15 mins by writhing assay relative to control; type: functional; set-up: scale not given: the % may be the effect or the level left
Mus musculus [6] = assay: Analgesic activity in Kun Ming mouse model assessed as inhibition of acetic acid-induced visceral pain at 0.1 mmol/kg, iv administered 5 mins prior to acetic acid challenge measured after 30 mins by writhing assay relative to control; type: functional; set-up: scale not given: the % may be the effect or the level left
Plasma [7] = assay: Prodrug conversion in Sprague-Dawley rat plasma assessed as PC407 formation at 5 mg/kg, iv after 1.5 hrs; type: ADME, organism-based; set-up: dose 5 mg/kg, route intravenous; settings: in vivo
[8] = target: Prostaglandin G/H synthase 1 (Homo sapiens) (UniProt P23219); assay: Inhibition of recombinant COX-1 (unknown origin) at 10 uM
[9] = target: T1, Prostaglandin G/H synthase 2 (Homo sapiens); assay: Inhibition of recombinant COX-2 (unknown origin) at 10 uM
[10] = Toxicity in iv dosed Kun Ming mouse; type: organism-based; settings: in vivo

Sequence of Prostaglandin G/H synthase 1 (Homo sapiens) (P23219 whole entry): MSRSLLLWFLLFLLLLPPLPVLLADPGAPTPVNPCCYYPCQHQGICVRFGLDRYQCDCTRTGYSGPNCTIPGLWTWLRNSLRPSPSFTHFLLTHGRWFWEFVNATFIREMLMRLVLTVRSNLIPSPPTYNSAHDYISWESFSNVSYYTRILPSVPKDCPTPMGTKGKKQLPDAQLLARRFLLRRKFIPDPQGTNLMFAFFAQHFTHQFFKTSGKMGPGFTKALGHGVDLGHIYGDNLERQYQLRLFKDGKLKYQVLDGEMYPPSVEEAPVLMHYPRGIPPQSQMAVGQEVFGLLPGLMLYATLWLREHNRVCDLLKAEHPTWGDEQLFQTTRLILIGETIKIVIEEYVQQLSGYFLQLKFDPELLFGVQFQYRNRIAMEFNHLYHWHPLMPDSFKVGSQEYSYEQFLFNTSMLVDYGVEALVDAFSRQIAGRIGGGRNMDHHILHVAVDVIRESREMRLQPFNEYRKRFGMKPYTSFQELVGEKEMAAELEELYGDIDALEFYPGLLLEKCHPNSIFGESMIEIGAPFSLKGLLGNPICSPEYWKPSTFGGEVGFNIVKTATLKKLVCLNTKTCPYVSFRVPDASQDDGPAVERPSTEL

NS(=O)(=O)c1ccc(-n2nc(C(F)(F)F)cc2-c2ccc3ccccc3c2)cc1
solubility [1]: 0.0016 mg/mL (≈ 3.83 µM)
Drug uptake (Plasma [2]): Active
inhibition [3]: inactive
inhibition [4]: 100%
Activity (Mus musculus [5]): 83%
Activity (Mus musculus [6]): 81%

O=C([O-])CCC(=O)[N-]S(=O)(=O)c1ccc(-n2nc(C(F)(F)F)cc2-c2ccc3ccccc3c2)cc1.[Na+].[Na+]
solubility [1]: 20.3 mg/mL
Drug metabolism (Plasma [7]): metabolite_detected
inhibition [8]: inactive
inhibition [9]: inactive
Activity (Mus musculus [5]): 77%
Activity (Mus musculus [6]): 83%
MTD [10]: > 1500 mg/kg
